The test system of the assay is Mycobacterium tuberculosis reference strain H37Rv. The assay is described as follows: MIC by broth dilution method. The conditions noted are these: 336 h, 37 °C, 14 days. The format is cell-based. The protocol:
MIC of each drug against M. abscessus was determined using the broth dilution method[27] in accordance with CLSI guidelines specific for this organism, except that Middlebrook 7H9 broth was used instead of cation-adjusted Mueller–Hinton broth. Powdered drug stocks were reconstituted in dimethyl sulfoxide and twofold serial dilutions were prepared in Middlebrook 7H9 broth to obtain final drug concentrations ranging from 512 to 0.5 µg/mL in 96-well plates. 10^5 colony forming units (CFU)/mL of M. abscessus from an exponentially growing culture were added to each well. M. abscessus cultured without drug and 7H9 broth alone were included in each plate as positive and negative controls, respectively. […] Growth of M. abscessus or lack thereof was assessed by visual inspection and an MIC for each drug was recorded as the lowest concentration at which M. abscessus growth was not observed. Results are reported as medians determined from three independent biological replicates. […] Middlebrook 7H9 broth was used for this assay and growth or lack thereof of M. tuberculosis was assessed after incubation at 37 °C for 14 days.
On the technique in general: In broth dilution the organism is exposed to a series of concentrations in liquid medium.

Structures are written as SMILES. ≈ marks a conversion by molar mass, not a printed value.

The term MIC denotes the least concentration at which growth counts as inhibited. Lower therefore signals inhibition by little substance. With `C[C@@H](O)C1C(=O)N2C(C(=O)O)=C(SC3CN(C4=NCCS4)C3)SC12` (stereo in doubt) [T405], the MIC was in the range of 0.5 to 1 µg/mL (≈ 1.29 to 2.58 µM).

For the origin of these results see paper PMC7721803, “Development of a penem antibiotic against Mycobacteroides abscessus” (Communications Biology, 2020).
